# Test results reported in PMC4626032, “The YHS-Domain of an Adenylyl Cyclase from Mycobacterium phlei Is a Probable Copper-Sensor Module” (PLoS ONE, 2015).
# What was measured:
# [1] = target: full-length Mycobacterium phlei adenylyl cyclase, untagged MpAC_(1-233) (Mycobacterium phlei); test: protein dependence of adenylyl cyclase activity; dimer to monomers; dissociation constant calculated from the protein dependance of the AC activity; data not shown
# MpAC1-182 = system: T1, MpAC1-182; test: cAMP formation determined by HPLC; type: biochemical, Mycolicibacterium phlei; details: 5 mM Mn2+, no Cu2+, pH 8.0, 30 °C; Hill coefficient 1.5 ± 0.2; read-out: SC50 [mM ATP]
# T1 construct: gene MpAC; isolated catalytic domain (CHD), residues 1-182 of 233, YHS domain removed; N-terminal MRGSH6GS tag kept, C-terminal extra Ala; codon-optimized gene in E. coli BL21(DE3)[pRep4]; class III ACs act as head-to-tail dimers
# Source text: cAMP formation determined by HPLC on MpAC1-182
# MpAC1-233 = system: T2, MpAC1-233; test: cAMP formation determined by HPLC; type: biochemical, Mycolicibacterium phlei; details: 5 mM Mn2+, no Cu2+, pH 8.0, 30 °C; Hill coefficient 0.9 ± 0.1; read-out: SC50 [mM ATP]
# T2 construct: gene MpAC; full length, residues 1-233 (CHD plus C-terminal YHS domain); His-TEV tag removed, N-terminal GS dipeptide remains; codon-optimized gene in E. coli BL21(DE3)[pRep4]
# Source text: cAMP formation determined by HPLC on MpAC1-233
Compound,Kd [1] [nM],Km (MpAC1-182) [mM],Km (MpAC1-233) [mM]
"full-length Mycobacterium phlei adenylyl cyclase, untagged MpAC_(1-233) (enzyme)",160,,
Nc1ncnc2c1ncn2[C@@H]1O[C@H](COP(=O)(O)OP(=O)(O)OP(=O)(O)O)[C@@H](O)[C@H]1O [ATP],,0.9 ± 0.22,2.11 ± 0.54
